Here are results for 14 compounds from patent publication US20250163104A1, “MACROCYCLIC IMMUNOMODULATORS” (priority 2021, published 2025).

pIC50: −log10 of the molar value. Where a SMILES comes first, the peptide text is derived from it. Bridges are numbered along the chain shown (N, C = ends). [ ]: non-standard residue; d: D form. The star is where a group is joined. ξ: configuration not given here. Phe(3-CF3) = N[C@@H](Cc1cccc(C(F)(F)F)c1)C(=O)O; Ala(morpholin-4-yl) = N[C@@H](CN1CCOCC1)C(=O)O; Phe(4-COOH) = N[C@@H](Cc1ccc(C(=O)O)cc1)C(=O)O; Bip = N[C@@H](Cc1ccc(-c2ccccc2)cc1)C(=O)O; Phe(3-OMe) = COc1cccc(C[C@H](N)C(=O)O)c1; Phe(3-Me) = Cc1cccc(C[C@H](N)C(=O)O)c1; hArg = N=C(N)NCCCC[C@H](N)C(=O)O; 3Pal = N[C@@H](Cc1cccnc1)C(=O)O; 4Pal = N[C@@H](Cc1ccncc1)C(=O)O; Cha = N[C@@H](CC1CCCCC1)C(=O)O; Cit = NC(=O)NCCC[C@H](N)C(=O)O; Ile(3ξ) = CCC(C)[C@H](N)C(=O)O; Thr(3ξ) = CC(O)[C@H](N)C(=O)O; NMeNle = CCCC[C@H](NC)C(=O)O; Hpra = C#CCC[C@H](N)C(=O)O; Carboxymethyl = O=C(O)C*; NMeA = CN[C@@H](C)C(=O)O; Nle = CCCC[C@H](N)C(=O)O; Orn = NCCC[C@H](N)C(=O)O; Dab = NCC[C@H](N)C(=O)O; Dap = NC[C@H](N)C(=O)O; Propargyl = C#CC*; X1 = C1CCC(*)CC1

The assay deals with T1, human PD-1 / PD-L1-Ig binding on Jurkat cell line over-expressing human PD-1 (Jurkat-PD-1) (Homo sapiens, UniProt Q15116).
T1 construct: expressed in transfected cells; host or cells: Jurkat
T1 sequence (Q15116 25-288): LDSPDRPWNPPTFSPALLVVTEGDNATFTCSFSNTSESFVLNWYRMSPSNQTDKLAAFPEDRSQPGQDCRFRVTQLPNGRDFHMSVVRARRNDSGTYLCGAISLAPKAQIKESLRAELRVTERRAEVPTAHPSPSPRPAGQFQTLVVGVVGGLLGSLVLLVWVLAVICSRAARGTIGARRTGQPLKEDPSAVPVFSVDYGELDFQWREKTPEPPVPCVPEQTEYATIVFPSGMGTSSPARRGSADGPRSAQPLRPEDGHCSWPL
In words: Jurkat-PD-1 Cell Binding High-Content Screening Assay (CBA). The note with it: Jurkat-PD-1 cells, PE-labeled PD-L1-Ig 20 nM final; read-out: Jurkat HPD1_PDL1 IC50. In kind it is cell-based. In a few lines:
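Jurkat cells over-expressing human PD-1, in DMEM/10% FCS, pre-incubated with compound 2 h at 37° C. PE-labeled human PD-L1-Ig (20 nM final) added for 1 h; cells fixed in paraformaldehyde with Hoechst 33342 nuclear stain, washed, and bound fluorescence quantified by high-content imaging.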

In the case of `CC(C)C[C@H]1NC(=O)[C@H](CCCN)NC(=O)[C@H](C(C)C)NC(=O)[C@H](Cc2ccc(-c3ccccc3)cc2)NC(=O)[C@H](C(C)C)NC(=O)[C@H](Cc2c[nH]c3ccccc23)NC(=O)[C@H](CC(=O)O)NC(=O)[C@H](Cc2ccc(OCC(=O)O)cc2)NC(=O)[C@H](CCCCNC(=N)N)NC(=O)CSC[C@@H](C(=O)N(C)[C@@H](C)C(N)=O)NC(=O)[C@H](CO)NC(=O)[C@H](C(C)C)NC(=O)[C@H](CC2CCCCC2)NC(=O)[C@H](CCN)NC1=O` [Compound 2569] ({CH2CO}-[hArg]Y(Carboxymethyl)DWV[Bip]V[Orn][dL][Dab][Cha]VSC[NMeA]-NH2; thioether N-14), the pIC50 (commonly −log10 of the IC50, conventionally taken in molar units) was 7.73.

Take `CC(C)C[C@H]1NC(=O)[C@H](CCCN)NC(=O)[C@H](CCC(=O)O)NC(=O)[C@H](Cc2ccc(-c3ccccc3)cc2)NC(=O)[C@H](C(C)C)NC(=O)[C@H](Cc2c[nH]c3ccccc23)NC(=O)[C@H](CC(=O)O)NC(=O)[C@H](Cc2ccc(OCC(=O)O)cc2)NC(=O)[C@H](CN)NC(=O)CSC[C@@H](C(=O)N[C@@H](C)C(N)=O)NC(=O)[C@H]([C@@H](C)O)NC(=O)[C@H](C(C)C)NC(=O)[C@H](CC2CCCCC2)NC(=O)[C@H](CCC(N)=O)NC1=O` [Compound 1513] ({CH2CO}-[Dap]Y(Carboxymethyl)DWV[Bip]E[Orn][dL]Q[Cha]VTCA-NH2; thioether N-14): the pIC50 is 7.59.

With `CC(C)C[C@H]1NC(=O)[C@H](CCCN)NC(=O)[C@H](Cc2ccc(C(=O)O)cc2)NC(=O)[C@H](Cc2ccc(-c3ccccc3)cc2)NC(=O)[C@H](Cc2ccc(OC3CCCCC3)cc2)NC(=O)[C@H](Cc2cccc(C(F)(F)F)c2)NC(=O)[C@H](CC(=O)O)NC(=O)[C@H](Cc2ccc(C(=O)O)cc2)NC(=O)[C@H](CN2CCOCC2)NC(=O)CSC[C@@H](C(=O)N[C@@H](CCN)C(N)=O)NC(=O)[C@H](CCC(=O)O)NC(=O)[C@H](C(C)C)NC(=O)[C@H](CC2CCCCC2)NC(=O)[C@H](CCN)NC1=O` [Example 2729] ({CH2CO}-[Ala(morpholin-4-yl)][Phe(4-COOH)]D[Phe(3-CF3)]Y(X1)[Bip][Phe(4-COOH)][Orn][dL][Dab][Cha]VEC[Dab]-NH2; thioether N-14), the pIC50 was 8.70.

As to `COc1cccc(C[C@@H]2NC(=O)[C@H](CC(=O)O)NC(=O)[C@H](Cc3ccc(C(=O)O)cc3)NC(=O)[C@H](Cc3ccncc3)NC(=O)CSC[C@@H](C(=O)N[C@@H](C)C(N)=O)NC(=O)[C@H]([C@@H](C)O)NC(=O)[C@H](C(C)C)NC(=O)[C@H](CC(C)C)NC(=O)[C@H](CCN)NC(=O)[C@@H](CC(C)C)NC(=O)[C@H](CCCN)NC(=O)[C@H](C(C)C)NC(=O)[C@H](Cc3ccc(-c4ccccc4)cc3)NC(=O)[C@H](C(C)C)NC2=O)c1` [Compound 1183] ({CH2CO}-[4Pal][Phe(4-COOH)]D[Phe(3-OMe)]V[Bip]V[Orn][dL][Dab]LVTCA-NH2; thioether N-14), the pIC50 was 8.21.

For the compound `C#CCC[C@@H]1NC(=O)[C@@H](CC(C)C)NC(=O)[C@H](CCCN)NC(=O)[C@H](C(C)C)NC(=O)[C@H](Cc2ccc(-c3ccccc3)cc2)NC(=O)[C@H](C(C)C)NC(=O)[C@H](Cc2cccc(C)c2)NC(=O)[C@H](CC(=O)O)NC(=O)[C@H](Cc2ccc(C(=O)O)cc2)NC(=O)[C@H](CN)NC(=O)CSC[C@@H](C(=O)N[C@@H](CCN)C(N)=O)NC(=O)[C@H]([C@@H](C)O)NC(=O)[C@H](C(C)C)NC(=O)[C@H](CC2CCCCC2)NC1=O` [Compound 2025] ({CH2CO}-[Dap][Phe(4-COOH)]D[Phe(3-Me)]V[Bip]V[Orn][dL][Hpra][Cha]VTC[Dab]-NH2; thioether N-14), the pIC50 is 7.82.

`CCC(C)[C@@H]1NC(=O)[C@H](Cc2ccc(-c3ccccc3)cc2)NC(=O)[C@H](C(C)C)NC(=O)[C@H](Cc2c[nH]c3ccccc23)NC(=O)[C@H](CC(=O)O)NC(=O)[C@H](Cc2cccnc2)NC(=O)[C@H](CN)NC(=O)CSC[C@@H](C(=O)N[C@@H](C)C(N)=O)NC(=O)[C@H]([C@@H](C)O)NC(=O)[C@H](C(C)C)NC(=O)[C@H](CC2CCCCC2)NC(=O)[C@H](CCN)NC(=O)[C@@H](CC(C)C)NC(=O)[C@H](CCCN)NC1=O` (stereo partly drawn) [Compound 2230] ({CH2CO}-[Dap][3Pal]DWV[Bip][Ile(3ξ)][Orn][dL][Dab][Cha]VTCA-NH2; thioether N-14): the pIC50 is 7.79.

As to `CC(=O)NCCC[C@@H]1NC(=O)[C@H](Cc2ccc(OCC(=O)O)cc2)NC(=O)[C@H](Cc2ccc(-c3ccccc3)cc2)NC(=O)[C@H](Cc2ccc(O)cc2)NC(=O)[C@H](Cc2cccc(C)c2)NC(=O)[C@H](CC(=O)O)NC(=O)[C@H](Cc2ccc(OCC(=O)O)cc2)NC(=O)[C@H](CCCNC(=N)N)NC(=O)CSC[C@@H](C(N)=O)NC(=O)[C@H]([C@@H](C)O)NC(=O)[C@H](C(C)C)NC(=O)[C@H](CC2CCCCC2)NC(=O)[C@H](CCN)NC(=O)[C@@H](CC(C)C)NC1=O` [Compound 2051] ({CH2CO}-RY(Carboxymethyl)D[Phe(3-Me)]Y[Bip]Y(Carboxymethyl)[Orn](Ac)[dL][Dab][Cha]VTC-NH2; thioether N-14), the pIC50 was 7.31.

On to `C#CCOc1ccc(C[C@@H]2NC(=O)[C@H](C(C)C)NC(=O)[C@H](CC3CCCCC3)NC(=O)[C@H](CCN)NC(=O)[C@@H](CC(C)C)NC(=O)[C@H](CCCN)NC(=O)[C@H](Cc3ccc(OCC(=O)O)cc3)NC(=O)[C@H](Cc3ccc(-c4ccccc4)cc3)NC(=O)[C@H](Cc3ccc(OCC(=O)O)cc3)NC(=O)[C@H](Cc3cccc(C)c3)NC(=O)[C@H](CC(=O)O)NC(=O)[C@H](Cc3ccc(OCC(=O)O)cc3)NC(=O)[C@H](CN)NC(=O)CSC[C@@H](C(=O)N[C@@H](CCN)C(N)=O)NC2=O)cc1` [Compound 1816] ({CH2CO}-[Dap]Y(Carboxymethyl)D[Phe(3-Me)]Y(Carboxymethyl)[Bip]Y(Carboxymethyl)[Orn][dL][Dab][Cha]VY(Propargyl)C[Dab]-NH2; thioether N-14), for which the pIC50 is 7.92.

As to `Cc1cccc(C[C@@H]2NC(=O)[C@H](CC(=O)O)NC(=O)[C@H](Cc3ccc(OCC(=O)O)cc3)NC(=O)[C@H](CN)NC(=O)CSC[C@@H](C(N)=O)NC(=O)[C@H](CCC(=O)O)NC(=O)[C@H](C(C)C)NC(=O)[C@H](CC3CCCCC3)NC(=O)[C@H](CCN)NC(=O)[C@@H](CC(C)C)NC(=O)[C@H](CCCN)NC(=O)[C@H](Cc3ccc(OCC(=O)O)cc3)NC(=O)[C@H](Cc3ccc(-c4ccccc4)cc3)NC(=O)[C@H](Cc3ccc(OCC(=O)O)cc3)NC2=O)c1` [Compound 1784] ({CH2CO}-[Dap]Y(Carboxymethyl)D[Phe(3-Me)]Y(Carboxymethyl)[Bip]Y(Carboxymethyl)[Orn][dL][Dab][Cha]VEC-NH2; thioether N-14), the pIC50 was 7.59.

On to `CC(C)C[C@@H]1NC(=O)[C@H](CCN)NC(=O)[C@@H](CC(C)C)NC(=O)[C@H](CCCN)NC(=O)[C@H](C(C)C)NC(=O)[C@H](Cc2ccc(-c3ccccc3)cc2)NC(=O)[C@H](C(C)C)NC(=O)[C@H](Cc2c[nH]c3ccccc23)NC(=O)[C@H](CC(N)=O)NC(=O)[C@H](Cc2ccc(O)cc2)NC(=O)[C@H](CC(N)=O)NC(=O)CSC[C@@H](C(=O)NCC(N)=O)NC(=O)[C@H](CO)NC(=O)[C@H](C(C)C)NC1=O` [Compound 1081] ({CH2CO}-NYNWV[Bip]V[Orn][dL][Dab]LVSCG-NH2; thioether N-14), for which the pIC50 was 7.54.

As for `CC(C)C[C@@H]1NC(=O)[C@H](CCCCN)NC(=O)[C@@H](CC(C)C)NC(=O)[C@H](CCCN)NC(=O)[C@H](Cc2cnc[nH]2)NC(=O)[C@H](Cc2ccc(-c3ccccc3)cc2)NC(=O)[C@H](C(C)C)NC(=O)[C@H](Cc2c[nH]c3ccccc23)NC(=O)[C@H](CC(=O)O)NC(=O)[C@H](Cc2ccc(O)cc2)NC(=O)[C@H](CC(N)=O)NC(=O)CSC[C@@H](C(=O)N[C@@H](C)C(N)=O)NC(=O)[C@H]([C@@H](C)O)NC(=O)[C@H](C(C)C)NC1=O` [Compound 1133] ({CH2CO}-NYDWV[Bip]H[Orn][dL]KLVTCA-NH2; thioether N-14), the pIC50 is 7.48.

As for `CCCC[C@@H]1NC(=O)[C@H](CCN)NC(=O)[C@@H](CC(C)C)NC(=O)[C@H](CCCN)NC(=O)[C@H](C(C)C)NC(=O)[C@H](Cc2ccc(-c3ccccc3)cc2)NC(=O)[C@H](CC(C)C)NC(=O)[C@H](Cc2c[nH]c3ccccc23)NC(=O)[C@H](CC(=O)O)NC(=O)[C@H](Cc2ccc(OCC(=O)O)cc2)NC(=O)[C@H](CN)NC(=O)CSC[C@@H](C(=O)NCC(N)=O)NC(=O)[C@H](CO)NC(=O)[C@H](C(C)C)NC1=O` [Compound 1408] ({CH2CO}-[Dap]Y(Carboxymethyl)DWL[Bip]V[Orn][dL][Dab][Nle]VSCG-NH2; thioether N-14), the negative logarithm of the IC50 (pIC50) was 8.09.

For `CC(C)C[C@@H]1NC(=O)[C@H](Cc2c[nH]c3ccccc23)NC(=O)[C@H](CC(=O)O)NC(=O)[C@H](Cc2ccc(OCC(=O)O)cc2)NC(=O)[C@H](CN)NC(=O)CSC[C@@H](C(=O)N[C@@H](C)C(N)=O)NC(=O)[C@H]([C@@H](C)O)NC(=O)[C@H](C(C)C)NC(=O)[C@H](CC(C)C)NC(=O)[C@H](CCN)NC(=O)[C@@H](CC(C)C)NC(=O)[C@H](CCCN)NC(=O)[C@H](CCCNC(N)=O)NC(=O)[C@H](Cc2ccc(-c3ccccc3)cc2)NC1=O` [Compound 1304] ({CH2CO}-[Dap]Y(Carboxymethyl)DWL[Bip][Cit][Orn][dL][Dab]LVTCA-NH2; thioether N-14), the pIC50 was 7.58.

On to `CCCC[C@H]1C(=O)N[C@@H](Cc2ccc(OCC(=O)O)cc2)C(=O)N[C@@H](CC(=O)O)C(=O)N[C@@H](Cc2cccc(C)c2)C(=O)N[C@@H](C(C)C)C(=O)N[C@@H](Cc2ccc(-c3ccccc3)cc2)C(=O)N[C@@H](C(C)O)C(=O)N[C@@H](CCCN)C(=O)N[C@H](CC(C)C)C(=O)N[C@@H](CCN)C(=O)N[C@@H](CC2CCCCC2)C(=O)N[C@@H](C(C)C)C(=O)N[C@@H](C(C)O)C(=O)N[C@H](C(=O)N[C@@H](CC(N)=O)C(N)=O)CSCC(=O)N1C` (stereo partly drawn) [Compound 2553] ({CH2CO}-[NMeNle]Y(Carboxymethyl)D[Phe(3-Me)]V[Bip][Thr(3ξ)][Orn][dL][Dab][Cha]V[Thr(3ξ)]CN-NH2; thioether N-14), for which the pIC50 is 7.61.
